Assay results published in ChEMBL document CHEMBL1130544, “Catalysis of the Kemp elimination by antibodies elicited against a cationic hapten” (Bioorg Med Chem Lett, 1997).

Legend:
Assay type in all cases: ADME
[1] = Kinetic parameter for antibody-catalyzed Kemp elimination, at pH 7.1, 30C, using 5% acetonitrile and 4B2 as catalyst was expressed as Kcat/KM
[2] = Kinetic parameter for antibody-catalyzed Kemp elimination, at pH 7.1, 30C, using 10% acetonitrile and 4B2 as catalyst was expressed as Kcat/KM
[3] = Kinetic parameter for antibody-catalyzed Kemp elimination, at pH 7.1, 30C, using 5% acetonitrile and 4B2 as catalyst was expressed as KM
[4] = Kinetic parameter for antibody-catalyzed Kemp elimination, at pH 7.1, 30C, using 1% acetonitrile and 4B2 as catalyst was expressed as KM
[5] = Kinetic parameter for antibody-catalyzed Kemp elimination, at pH 7.1, 30C, using 0.25% acetonitrile and 4B2 as catalyst was expressed as Kcat/KM
[6] = Kinetic parameter for antibody-catalyzed Kemp elimination, at pH 7.1, 30C, using 5% acetonitrile and 4B2 as catalyst was expressed as Kcat/Kuncat
[7] = Kinetic parameter for antibody-catalyzed Kemp elimination, at pH 7.1, 30C, using 1% acetonitrile and 4B2 as catalyst was expressed as Kcat/Kuncat
[8] = Rate constant ratio at 30 degree C in phosphate buffer pH 7.1, 0.5 % acetonitrile
[9] = Kinetic parameter for antibody-catalyzed Kemp elimination, at pH 7.1, 30C, using 1% acetonitrile and 6C2 as catalyst was expressed as Kcat/KM
[10] = Rate constant at 30 degree C in phosphate buffer pH 7.1, 0.5 % acetonitrile was expressed as Kcat/KM
[11] = Kinetic parameter for antibody-catalyzed Kemp elimination, at pH 7.1, 30C, using 5% acetonitrile and 4B2 as catalyst was expressed as Kcat
[12] = Rate constant with triethylamine at 30 degree C in 0.1 M potassium chloride was expressed as Kamine
[13] = Kinetic parameter for antibody-catalyzed Kemp elimination, at pH 7.1, 30C, using 1% acetonitrile and 4B2 as catalyst was expressed as Kcat
[14] = Kinetic parameter for antibody-catalyzed Kemp elimination, at pH 7.1, 30C, using 1% acetonitrile and 4B2 as catalyst was expressed as Kcat/KM

Row | k cat/Km [1] [M⁻¹ s⁻¹] | k cat/Km [2] [M⁻¹ s⁻¹] | Km [3] [µM] | Km [4] [µM] | k cat/Km [5] [M⁻¹ s⁻¹] | k cat/Kuncat [6] | k cat/Kuncat [7] | Ratio [8] | k cat/Km [9] [M⁻¹ s⁻¹] | k cat/Km [10] [M⁻¹ s⁻¹] | k cat [11] [s⁻¹] | K amine [12] [M⁻¹ s⁻¹] | k cat [13] [s⁻¹] | k cat/Km [14] [M⁻¹ s⁻¹] | SMILES
1 | 10.1 | 5.9 | 2100 | 1200 | 53 | 6300 | 18000 | 48 | 1.4 | 39 | 0.022 | 0.82 | 0.035 | 29.1 | O=[N+]([O-])c1ccc2oncc2c1
2 | – | – | – | – | – | – | – | 38 | – | 6 | – | 0.16 | – | – | O=[N+]([O-])c1ccc2cnoc2c1
3 | – | – | – | – | – | – | – | 32 | – | 0.6 | – | 0.0185 | – | – | c1ccc2oncc2c1 [BENZO[D]ISOXAZOLE]
